Assay results reported in patent US8993591B2, “1,2,4-triazolo[4,3-a] pyridine derivatives and their use as positive allosteric modulators of MGLUR2 receptors” (Janssen Pharmaceuticals, Inc., priority 2010, dated 2015).

Molecular target: T1, human mGluR2 receptor (Homo sapiens, UniProt Q14416)
T1 construct: expressed in transfected cells; host or cells: CHO cells (membranes)
Experiment: [35S]GTPγS binding assay, mGluR2 positive allosteric modulation (PAM)
Type: biochemical
Details: membranes from CHO cells transfected with human mGluR2, in presence of glutamate at EC20; for EC50: -log EC50 with EC50 in M, read-out: GTPγS - hmGluR2 PAM pEC50 (converted); for GTPγS - hmGluR2 PAM Emax: maximal % effect relative to the control glutamate response
Protocol: The [^35S]GTPγS binding assay is a functional membrane-based assay used to study G-protein coupled receptor (GPCR) function whereby incorporation of a non-hydrolysable form of GTP, [^35S]GTPγS (guanosine 5′-triphosphate, labelled with […] ^35S), is measured. The G-protein α subunit catalyzes the exchange of guanosine 5′-diphosphate (GDP) by guanosine triphosphate (GTP) and on activation of the GPCR by an agonist, [^35S]GTPγS, becomes incorporated and cannot be cleaved to continue the exchange cycle (Harper (1998) Current Protocols in Pharmacology 2.6.1-10, John Wiley & Sons, Inc.). […] Here we describe the use of the [^35S]GTPγS binding assay using membranes from cells transfected with the human mGluR2 receptor and adapted from Schaffhauser et al. ((2003) Molecular Pharmacology 4:798-810) for the detection of the positive allosteric modulation (PAM) properties of the compounds of this invention.
CHO-cells were cultured to pre-confluence and stimulated with 5 mM butyrate for 24 h. Cells were then collected by scraping in PBS and cell suspension was centrifuged (10 min at 4000 RPM in benchtop centrifuge). Supernatant was discarded and pellet gently resuspended in 50 mM Tris-HCl, pH 7.4 by mixing with a vortex and pipetting up and down. The suspension was centrifuged at 16,000 RPM (Sorvall RC-5C plus rotor SS-34) for 10 minutes and the supernatant discarded. The pellet was homogenized in 5 mM Tris-HCl, pH 7.4 using an ultra-turrax homogenizer and centrifuged again (18,000 RPM, 20 min, 4° C.). The final pellet was resuspended in 50 mM Tris-HCl, pH 7.4 and stored at −80° C. in appropriate aliquots before use. Protein concentration was determined by the Bradford method (Bio-Rad, USA) with bovine serum albumin as standard.
Measurement of mGluR2 positive allosteric modulatory activity of test compounds was performed as follows. Test compounds and glutamate were diluted in assay buffer containing 10 mM HEPES acid, 10 mM HEPES salt, pH 7.4, 100 mM NaCl, 3 mM MgCl2 and 10 μM GDP. Human mGlu2 receptor-containing membranes were thawed on ice and diluted in assay buffer supplemented with 14 μg/ml saponin. Membranes were pre-incubated with compound alone or together with a predefined (˜EC20) concentration of glutamate (PAM assay) for 30 min at 30° C. After addition of [^35S]GTPγS (f.c. 0.1 nM), assay mixtures were shaken briefly and further incubated to allow [^35S]GTPγS incorporation on activation (30 minutes, 30° C.). Final assay mixtures contained 7 μg of membrane protein in 10 mM HEPES acid, 10 mM HEPES salt, pH 7.4, 100 mM NaCl, 3 mM MgCl2, 10 μM GDP and 10 μg/ml saponin. Total reaction volume was 200 μl. Reactions were terminated by rapid filtration through Unifilter-96 GF/B plates (Perkin Elmer, Mass., USA) using a 96-well filtermate universal harvester. Filters were washed 6 times with ice-cold 10 mM NaH2PO4/10 mM Na2HPO4, pH 7.4. Filters were then air-dried, and 40 μl of liquid scintillation cocktail (Microscint-O) was added to each well. Membrane-bound radioactivity was counted in a Microplate Scintillation and Luminescence Counter from Perkin Elmer.
The concentration-response curves of representative compounds of the present invention-obtained in the presence of EC20 of mGluR2 agonist glutamate to determine positive allosteric modulation (PAM)-were generated using the Lexis software interface (developed at J&J).

T1 sequence (Q14416 19-872): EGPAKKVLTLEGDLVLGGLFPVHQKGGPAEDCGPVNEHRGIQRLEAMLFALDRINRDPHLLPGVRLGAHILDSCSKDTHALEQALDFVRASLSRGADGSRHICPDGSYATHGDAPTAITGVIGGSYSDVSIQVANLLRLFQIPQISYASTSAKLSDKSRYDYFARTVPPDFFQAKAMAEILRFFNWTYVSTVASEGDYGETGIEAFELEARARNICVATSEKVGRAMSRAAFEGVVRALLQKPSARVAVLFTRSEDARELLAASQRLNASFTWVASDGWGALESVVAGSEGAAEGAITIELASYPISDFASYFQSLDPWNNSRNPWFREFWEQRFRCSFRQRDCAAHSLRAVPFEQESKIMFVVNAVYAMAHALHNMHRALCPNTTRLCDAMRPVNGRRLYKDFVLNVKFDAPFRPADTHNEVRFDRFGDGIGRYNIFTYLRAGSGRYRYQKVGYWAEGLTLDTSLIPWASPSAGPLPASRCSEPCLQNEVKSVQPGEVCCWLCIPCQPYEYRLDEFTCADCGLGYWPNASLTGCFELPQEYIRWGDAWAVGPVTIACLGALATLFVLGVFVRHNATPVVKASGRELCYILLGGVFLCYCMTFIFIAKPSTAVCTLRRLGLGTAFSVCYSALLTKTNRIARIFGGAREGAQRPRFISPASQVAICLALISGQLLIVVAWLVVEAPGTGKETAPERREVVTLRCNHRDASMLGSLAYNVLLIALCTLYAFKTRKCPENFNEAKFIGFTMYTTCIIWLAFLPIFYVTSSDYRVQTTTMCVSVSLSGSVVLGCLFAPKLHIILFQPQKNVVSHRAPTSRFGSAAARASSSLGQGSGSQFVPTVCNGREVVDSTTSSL

Structure (SMILES): Fc1ccc(C2CN(Cc3ccn4c(CC5CC5)nnc4c3C(F)(F)F)CCN2)c(F)c1 (single isomer, unassigned) [Compound 19b, 3-(Cyclopropylmethyl)-7-{[(3*S)-3-(2,4-difluorophenyl)piperazin-1-yl]methyl}-8-(trifluoromethyl)[1,2,4]triazolo[4,3-a]pyridine]
- EC50: 468 nM
- GTPγS - hmGluR2 PAM Emax: 279%

Structure (SMILES): Fc1ccccc1C1CN(Cc2ccn3c(CC4CC4)nnc3c2C(F)(F)F)CCN1 (single isomer, unassigned) [Compound 6a, 3-(cyclopropylmethyl)-7-[[3-(2-fluorophenyl)-1-piperazinyl]methyl]-8-(trifluoromethyl)-1,2,4-triazolo[4,3-a]pyridine (*R)]
- EC50: 447 nM
- GTPγS - hmGluR2 PAM Emax: 208%
